The values below come from ChEMBL document CHEMBL3045406, “Enantioselective Relieving Activity of α-Methylbenzylphenylureas toward Bensulfuron-methyl Injury to Rice (Oryza sativa)” (Biosci Biotechnol Biochem, 1999).

For one data set, the system named is Oryza sativa. Description: Effect on Oryza sativa (rice) assessed as growth rate at 1 uM relative to control. In kind it is organism-based. The settings on record: in vivo.
Regarding `C[C@H](NC(=O)Nc1ccccc1I)c1ccccc1`, the Activity was 100%.
The same measure, in the same setting: as for `C[C@@H](NC(=O)Nc1ccc(Br)cc1)c1ccccc1`, the figure is 95%; as for `CCOC(=O)c1cccc(NC(=O)N[C@H](C)c2ccccc2)c1`, 94%; as for `CC(=O)c1cccc(NC(=O)N[C@@H](C)c2ccccc2)c1`, 95%.
On the same count and under the same terms, with `CCCCCCc1ccc(NC(=O)N[C@@H](C)c2ccccc2)cc1` the figure was 100%; with `C[C@H](NC(=O)Nc1ccc(Br)cc1)c1ccccc1`, 97%; with `C[C@H](NC(=O)Nc1ccccc1C(C)(C)C)c1ccccc1`, 99%.
Still for that read-out and setting: with `C[C@H](NC(=O)Nc1cc(F)ccc1F)c1ccccc1` the figure was 98%.

Another data set has as its system Oryza sativa. The data set can be described thus: Safener indices, ratio of compound effect of Oryza sativa (rice) growth rate to relieving activity against bensulfuron-methyl induced injury to Oryza sativa growth rate at 1 uM.
Details: not given
As to `C[C@H](NC(=O)Nc1ccccc1I)c1ccccc1`, the Ratio is listed as 70.
On the same count and under the same terms, with `C[C@@H](NC(=O)Nc1ccc(Br)cc1)c1ccccc1` the figure was 55.
With `CCOC(=O)c1cccc(NC(=O)N[C@H](C)c2ccccc2)c1`, the Ratio was 51.
On the same count and under the same terms, with `CC(=O)c1cccc(NC(=O)N[C@@H](C)c2ccccc2)c1` the figure was 38.
On the same count and under the same terms, as for `CCCCCCc1ccc(NC(=O)N[C@@H](C)c2ccccc2)cc1`, the figure is 11; as for `C[C@H](NC(=O)Nc1ccc(Br)cc1)c1ccccc1`, 59; as for `C[C@H](NC(=O)Nc1ccccc1C(C)(C)C)c1ccccc1`, 14.
Take `C[C@H](NC(=O)Nc1cc(F)ccc1F)c1ccccc1`: the Ratio is on record as 77.

The next data set has as its system Oryza sativa. Description: Relieving activity against bensulfuron-methyl induced injury to Oryza sativa (rice) assessed as growth rate at 10 uM (Rbv = 46 to 53%). In kind it is functional.
Details: not given
Turning to `C[C@H](NC(=O)Nc1ccccc1I)c1ccccc1`, the Activity was 89%.
For the molecule `C[C@@H](NC(=O)Nc1ccc(Br)cc1)c1ccccc1`, the Activity is listed as 86%.
Still for that read-out and setting: as for `CCOC(=O)c1cccc(NC(=O)N[C@H](C)c2ccccc2)c1`, the figure is 87%; as for `CC(=O)c1cccc(NC(=O)N[C@@H](C)c2ccccc2)c1`, 89%.
For the molecule `CCCCCCc1ccc(NC(=O)N[C@@H](C)c2ccccc2)cc1`, the Activity is given as 61%.
The same measure, in the same setting: as for `C[C@H](NC(=O)Nc1ccc(Br)cc1)c1ccccc1`, the figure is 84%.
As for `C[C@H](NC(=O)Nc1ccccc1C(C)(C)C)c1ccccc1`, the Activity was determined as 66%.
Same read-out and setting: as for `C[C@H](NC(=O)Nc1cc(F)ccc1F)c1ccccc1`, the figure is 96%.

A further data set has as its system Oryza sativa. Description: Safener indices, ratio of compound effect of Oryza sativa (rice) growth rate to relieving activity against bensulfuron-methyl induced injury to Oryza sativa growth rate at 0.1 uM.
Details: not given
On to `C[C@H](NC(=O)Nc1ccccc1I)c1ccccc1`, for which the Ratio is on record as 32.
The same measure, in the same setting: with `C[C@@H](NC(=O)Nc1ccc(Br)cc1)c1ccccc1` the figure was 5; with `CCOC(=O)c1cccc(NC(=O)N[C@H](C)c2ccccc2)c1`, 15.
On the same count and under the same terms, with `CC(=O)c1cccc(NC(=O)N[C@@H](C)c2ccccc2)c1` the figure was 35; with `CCCCCCc1ccc(NC(=O)N[C@@H](C)c2ccccc2)cc1`, 6; with `C[C@H](NC(=O)Nc1ccc(Br)cc1)c1ccccc1`, 24.
As to `C[C@H](NC(=O)Nc1ccccc1C(C)(C)C)c1ccccc1`, the Ratio is 3.
The same measure, in the same setting: as for `C[C@H](NC(=O)Nc1cc(F)ccc1F)c1ccccc1`, the figure is 47.

The next data set concerns Oryza sativa. The data set can be described thus: Relieving activity against bensulfuron-methyl induced injury to Oryza sativa (rice) assessed as growth rate at 1 uM (Rbv = 46 to 53%). In kind it is functional.
Details: not given
With `C[C@H](NC(=O)Nc1ccccc1I)c1ccccc1`, the Activity was determined as 85%.
Same read-out and setting: as for `C[C@@H](NC(=O)Nc1ccc(Br)cc1)c1ccccc1`, the figure is 77%.
Take `CCOC(=O)c1cccc(NC(=O)N[C@H](C)c2ccccc2)c1`: the Activity stood at 74%.
As for `CC(=O)c1cccc(NC(=O)N[C@@H](C)c2ccccc2)c1`, the Activity amounted to 83%.
The same measure, in the same setting: with `CCCCCCc1ccc(NC(=O)N[C@@H](C)c2ccccc2)cc1` the figure was 54%; with `C[C@H](NC(=O)Nc1ccc(Br)cc1)c1ccccc1`, 79%; with `C[C@H](NC(=O)Nc1ccccc1C(C)(C)C)c1ccccc1`, 57%.
The same measure, in the same setting: as for `C[C@H](NC(=O)Nc1cc(F)ccc1F)c1ccccc1`, the figure is 89%.

Test system in another data set: not listed separately
The data set can be described thus: Hydrophobicity, log K of the compound. The settings on record: octanol/water. The format is physicochemical.
Take `C[C@H](NC(=O)Nc1ccccc1I)c1ccccc1`: the “log K” value is 0.502.
On the same count and under the same terms, with `C[C@@H](NC(=O)Nc1ccc(Br)cc1)c1ccccc1` the figure was 0.488; with `CCOC(=O)c1cccc(NC(=O)N[C@H](C)c2ccccc2)c1`, 0.419; with `CC(=O)c1cccc(NC(=O)N[C@@H](C)c2ccccc2)c1`, 0.245.
Still for that read-out and setting: with `CCCCCCc1ccc(NC(=O)N[C@@H](C)c2ccccc2)cc1` the figure was 1.081; with `C[C@H](NC(=O)Nc1ccc(Br)cc1)c1ccccc1`, 0.488; with `C[C@H](NC(=O)Nc1ccccc1C(C)(C)C)c1ccccc1`, 0.535.
For `C[C@H](NC(=O)Nc1cc(F)ccc1F)c1ccccc1`, the “log K” value amounted to 0.464.

Another data set concerns Oryza sativa. The data set can be described thus: Effect on Oryza sativa (rice) assessed as growth rate at 0.1 uM relative to control. The format is organism-based. The conditions noted are these: in vivo.
`C[C@H](NC(=O)Nc1ccccc1I)c1ccccc1`: the Activity turned out to be 99%.
Still for that read-out and setting: as for `C[C@@H](NC(=O)Nc1ccc(Br)cc1)c1ccccc1`, the figure is 100%; as for `CCOC(=O)c1cccc(NC(=O)N[C@H](C)c2ccccc2)c1`, 99%; as for `CC(=O)c1cccc(NC(=O)N[C@@H](C)c2ccccc2)c1`, 96%.
Same read-out and setting: as for `CCCCCCc1ccc(NC(=O)N[C@@H](C)c2ccccc2)cc1`, the figure is 99%.
`C[C@H](NC(=O)Nc1ccc(Br)cc1)c1ccccc1`: the Activity stood at 98%.
On the same count and under the same terms, as for `C[C@H](NC(=O)Nc1ccccc1C(C)(C)C)c1ccccc1`, the figure is 101%.
On the same count and under the same terms, as for `C[C@H](NC(=O)Nc1cc(F)ccc1F)c1ccccc1`, the figure is 100%.

In the next data set the test system is Oryza sativa. The data set can be described thus: Safener indices, ratio of compound effect of Oryza sativa (rice) growth rate to relieving activity against bensulfuron-methyl induced injury to Oryza sativa growth rate at 10 uM.
Details: not given
Regarding `C[C@H](NC(=O)Nc1ccccc1I)c1ccccc1`, the Ratio was 77.
Same read-out and setting: with `C[C@@H](NC(=O)Nc1ccc(Br)cc1)c1ccccc1` the figure was 76; with `CCOC(=O)c1cccc(NC(=O)N[C@H](C)c2ccccc2)c1`, 77; with `CC(=O)c1cccc(NC(=O)N[C@@H](C)c2ccccc2)c1`, 80.
The same measure, in the same setting: as for `CCCCCCc1ccc(NC(=O)N[C@@H](C)c2ccccc2)cc1`, the figure is 25; as for `C[C@H](NC(=O)Nc1ccc(Br)cc1)c1ccccc1`, 69; as for `C[C@H](NC(=O)Nc1ccccc1C(C)(C)C)c1ccccc1`, 31.
On the same count and under the same terms, with `C[C@H](NC(=O)Nc1cc(F)ccc1F)c1ccccc1` the figure was 92.

The subject of a further data set is Oryza sativa. The data set can be described thus: Relieving activity against bensulfuron-methyl induced injury to Oryza sativa (rice) assessed as growth rate at 0.1 uM (Rbv = 46 to 53%).
Details: not given
In kind it is functional.
Take `C[C@H](NC(=O)Nc1ccccc1I)c1ccccc1`: the Activity is 67%.
Consider `C[C@@H](NC(=O)Nc1ccc(Br)cc1)c1ccccc1`, for which the Activity came to 53%.
On the same count and under the same terms, as for `CCOC(=O)c1cccc(NC(=O)N[C@H](C)c2ccccc2)c1`, the figure is 57%.
Same read-out and setting: as for `CC(=O)c1cccc(NC(=O)N[C@@H](C)c2ccccc2)c1`, the figure is 65%.
The same measure, in the same setting: with `CCCCCCc1ccc(NC(=O)N[C@@H](C)c2ccccc2)cc1` the figure was 51%; with `C[C@H](NC(=O)Nc1ccc(Br)cc1)c1ccccc1`, 62%; with `C[C@H](NC(=O)Nc1ccccc1C(C)(C)C)c1ccccc1`, 52%.
Regarding `C[C@H](NC(=O)Nc1cc(F)ccc1F)c1ccccc1`, the Activity stood at 74%.

The next data set concerns Oryza sativa. Description: Effect on Oryza sativa (rice) assessed as growth rate at 10 uM relative to control. The settings on record: in vivo. In kind it is organism-based.
Consider `C[C@H](NC(=O)Nc1ccccc1I)c1ccccc1`, for which the Activity was found to be 98%.
The same measure, in the same setting: with `C[C@@H](NC(=O)Nc1ccc(Br)cc1)c1ccccc1` the figure was 87%; with `CCOC(=O)c1cccc(NC(=O)N[C@H](C)c2ccccc2)c1`, 88%.
Take `CC(=O)c1cccc(NC(=O)N[C@@H](C)c2ccccc2)c1`: the Activity was found to be 94%.
As for `CCCCCCc1ccc(NC(=O)N[C@@H](C)c2ccccc2)cc1`, the Activity turned out to be 99%.
For the molecule `C[C@H](NC(=O)Nc1ccc(Br)cc1)c1ccccc1`, the Activity came to 96%.
On the same count and under the same terms, as for `C[C@H](NC(=O)Nc1ccccc1C(C)(C)C)c1ccccc1`, the figure is 100%.
For `C[C@H](NC(=O)Nc1cc(F)ccc1F)c1ccccc1`, the Activity was determined as 99%.
